Data taken from US6251943A, “Method of treating or preventing septic shock by administering a MEK inhibitor” (Warner-Lambert Company, priority 1999, dated 2001).

biological target: MEK (Homo sapiens, UniProt Q02750); assay: In vitro MEK inhibition (cascade assay for inhibitors of the MAP kinase pathway / in vitro MEK assay); format: biochemical; details: Table 1
Experimental: Incorporation of ^32 P into myelin basic protein (MBP) was assayed in the presence of a glutathione S-transferase fusion protein containing p44MAP kinase (GST-MAPK) and a glutathione S-transferase fusion protein containing p45MEK (GST-MEK). The assay solution contained 20 mM HEPES, pH 7.4, 10 MM MgCl2, 1 mM MnCl2, 1 mM EGTA, 50 μM [γ-^32 P]ATP, 10 μg GST-MEK, 0.5 μg GST-MAPK and 40 μg MBP in a final volume of 100 μL. […] Compounds were assessed at 10 μM for ability to inhibit incorporation of ^32 P.
To ascertain whether compounds were inhibiting GST-MEK or GST MAPK, two additional protocols were employed. In the first protocol, compounds were added to tubes containing GST-MEK, followed by addition of GST-MAPK, MBP and [γ-^32 P]ATP. In the second protocol, compounds were added to tubes containing both GST-MEK and GST-MAPK, followed by MBP and [γ-^32 P]ATP.
For evaluation of direct MEK activity, 10 μg GST-MEK1 was incubated with 5 μg of a glutathione S-transferase fusion protein containing p44MAP kinase with a lysine to alanine mutation at position 71 (GST-MAPK-KA). This mutation eliminates kinase activity of MAPK, so only kinase activity attributed to the added MEK remains. Incubations were 15 minutes at 30° C in a final volume of 50 μL containing 50 mM Tris (pH 7.5), […], […], and 10 μM [γ-^32 P]ATP. The reaction was stopped by addition of Laenunli SDS sample buffer and phosphorylated GST-MAPK-KA was resolved by electrophoresis on a 10% polyacrylamide gel. Radioactivity incorporated into GST-MAPK-KA was determined by autoradiography, and subsequently by excision of the bands followed by scintillation counting. […] When these sites are phosphorylated, MEK activity is increased. Phosphorylation of these sites can be mimicked by mutation of the serine residues to glutamate. For this assay, 5 μg GST-MEK-2E was incubated with 5 μg GST-MAPK-KA for 15 minutes at 30° C. in the same reaction buffer as described above. Reactions were terminated and analyzed as above.

MEK, sequence (Q02750 whole entry, the tested form may be a part): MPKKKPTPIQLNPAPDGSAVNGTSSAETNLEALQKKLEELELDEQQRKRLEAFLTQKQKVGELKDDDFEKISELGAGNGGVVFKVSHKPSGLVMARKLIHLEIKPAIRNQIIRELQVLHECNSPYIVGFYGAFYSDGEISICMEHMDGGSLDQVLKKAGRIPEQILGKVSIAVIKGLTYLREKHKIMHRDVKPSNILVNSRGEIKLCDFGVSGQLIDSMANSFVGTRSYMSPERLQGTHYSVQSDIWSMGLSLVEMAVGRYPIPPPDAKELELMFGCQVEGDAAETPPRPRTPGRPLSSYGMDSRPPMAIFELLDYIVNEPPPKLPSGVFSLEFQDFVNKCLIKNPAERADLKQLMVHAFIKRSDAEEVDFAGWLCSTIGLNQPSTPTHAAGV

Row | IC50 | Structure (SMILES)
1 | 555 nM | Cc1cc(I)ccc1Nc1ccc(F)cc1C(=O)NOCc1ccccc1 [Example 186, N-Benzyloxy-5-fluoro-2-(4-iodo-2-methyl-phenylamino)-benzamide]
2 | > 1000 nM | CCN(CC)C(=O)c1ccc(F)cc1Nc1ccc(I)cc1C [Example 43, N,N-Diethyl-4-fluoro-2-(4-iodo-2-methyl-phenylamino)-benzamide]
3 | 105000 nM | Cc1cc(I)ccc1Nc1cc([N+](=O)[O-])ccc1C(=O)O [Example 30, 2-(4-Iodo-2-methyl-phenylamino)-4-nitro-benzoic acid]
4 | 12800 nM | Cc1cc(I)ccc1Nc1ccc([N+](=O)[O-])cc1C(=O)NCCO [Example 195, N-(2-Hydroxy-ethyl)-2-(4-iodo-2-methyl-phenylamino)-5-nitro-benzamide]

same assay, conditions: Table 2

Row | IC50 | Structure (SMILES)
5 | 280 nM | Cc1cc(I)ccc1Nc1cc(F)ccc1C(=O)NOCc1ccccc1 [Example 77a, 4-Fluoro-2-(4-iodo-2-methyl-phenylamino)-N-phenylmethoxy-benzamide]
6 | 334 nM | Cc1cc(Cl)ccc1Nc1cc(F)ccc1C(=O)NO [Example 11a, 4-Fluoro-N-hydroxy-2-(4-cluoro-2-methyl-phenylamino)-benzamide]
7 | 18 nM | Cc1cc(I)ccc1Nc1c(C(=O)NOCC2CC2)cc(Br)c(F)c1F [Example 58a, 5-Bromo-N-cyclopropylmethoxy-3,4-difluoro-2-(4-iodo-2-methyl-phenylamino)]
8 | 72 nM | Cc1cc(Br)ccc1Nc1cc(F)ccc1C(=O)NO [Example 3a, 2-(4-bromo-2-methyl-phenylamino)-4-fluoro-N-hydroxy-benzamide]

tested on: MAP kinase; assay: "In Vivo" activity (whole cell MAP kinase assay); format: cell-based; details: Table 2
Experimental: To determine if compounds were able to block activation of MAP kinase in whole cells, the following protocol was used: Cells were plated in multi-well plates and grown to confluence. Cells were then serum-deprived overnight. Cells were exposed to the desired concentrations of compound or vehicle (DMSO) for 30 minutes, followed by addition of a growth factor, for example, PDGF (100 ng/mL). After a 5-minute treatment with the growth factor, cells were washed with PBS, then lysed in a buffer consisting of 70 mM NaCl, 10 mM HEPES (pH 7.4), 50 mM glycerol phosphate, and 1% Triton X-100. Lysates were clarified by centrifugation at 13,000×g for 10 minutes. Five micrograms of the resulting supernatants were incubated with […] microtubule associated protein-2 (Map2) for 15 minutes at 30° C. in a final volume of 25 μL containing 50 mM Tris (pH 7.4), 10 mM MgCl2, 2 mM EGTA and 30 μM [γ-^32 P]ATP. Reactions were terminated by addition of Laemmli sample buffer. Phosphorylated Map2 was resolved on 7.5% acrylamide gels and incorporated radioactivity determined by autoradiography and subsequent excision of the bands followed by scintillation counting.
The in vitro and in vivo biological activity of several representative compounds of Formula I and II in the foregoing assays is presented in Tables 1 and 2.

Row | IC50 | Structure (SMILES)
9 | 130 nM | C=C(C)CONC(=O)c1ccc(F)c(F)c1Nc1ccc(I)cc1C [Example 66a, 3,4-Difluoro-2-(4-iodo-2-methyl-phenylamino)-N-(2-methyl-allyloxy)-benzamide]
10 | 125 nM | CCONC(=O)c1ccc(F)c(F)c1Nc1ccc(I)cc1C [Example 40a, N-Ethoxy-3,4-difluoro-2-(4-iodo-2-methyl-phenylamino)-benzamide]
11 | 1500 nM | Cc1cc(I)ccc1Nc1c(C(=O)NOCC#Cc2cccc(F)c2)ccc(F)c1F [Example 34a, 3,4-Difluoro-N-[3-(3-fluoro-phenyl)-prop-2-ynyloxy]-2-(4-iodo-2-methyl-phenylamino)-benzamide]
12 | 170 nM | Cc1cc(I)ccc1Nc1cc(F)ccc1C(=O)NOCc1ccoc1 [Example 20a, 4-Fluoro-N-(furan-3-ylmethoxy)-2-(4-iodo-2-methyl-phenylamino)-benzamide]
13 | ~30000 nM | Cc1cc(I)ccc1Nc1ccc(Cl)cc1C(=O)N(C)O [Example 5a, 5-Chloro-N-hydroxy-2-(4-iodo-2-methyl-phenylamino)-N-methyl-benzamide]
14 | 50 nM | Cc1cc(I)ccc1Nc1cc(F)ccc1C(=O)NO [Example 1a, 4-Fluoro-N-hydroxy-2-(4-iodo-2-methyl-phenylamino)-benzamide]
15 | 100 nM | CCCONC(=O)c1ccc(F)c(F)c1Nc1ccc(I)cc1C [Example 43a, 3,4-Difluoro-2-(4-iodo-2-methyl-phenylamino)-N-propoxy-benzamide]
16 | 130 nM | Cc1cc(I)ccc1Nc1c(C(=O)NOC(C)C)ccc(F)c1F [Example 47a, 3,4-Difluoro-2-(4-iodo-2-methyl-phenylamino)-N-isopropoxy-benzamide]
17 | 70 nM | Cc1cc(I)ccc1Nc1c(C(=O)NOCC#Cc2ccccc2F)ccc(F)c1F [Example 36a, 3,4-Difluoro-N-[3-(2-fluoro-phenyl)-prop-2-ynyloxy]-2-(4-iodo-2-methyl-phenylamino)-benzamide]
18 | 1000 nM | Cc1cc(I)ccc1Nc1ccc(Cl)cc1C(=O)NO [Example 4a, 5-Chloro-N-hydroxy-2-(4-iodo-2-methyl-phenylamino)-benzamide]
19 | 220 nM | Cc1cc(I)ccc1Nc1c(C(=O)NOC2CCC2)ccc(F)c1F [Example 50a, N-Cyclobutyloxy-3,4-difluoro-2-(4-iodo-2-methyl-phenylamino)-benzamide]
20 | 390 nM | C#CCONC(=O)c1ccc(F)c(F)c1Nc1ccc(I)cc1C [Example 71a, 3,4-Difluoro-2-(4-iodo-2-methyl-phenylamino)-N-(prop-2-ynyloxy)-benzamide]
21 | 3000 nM | Cc1cc(F)ccc1Nc1cc(F)ccc1C(=O)NO [Example 8a, 4-Fluoro-N-hydroxy-2-(4-fluoro-2-methyl-phenylamino)-benzamide]
22 | 500 nM | Cc1cc(Cl)ccc1Nc1cc(F)ccc1C(=O)NO [Example 11a, 4-Fluoro-N-hydroxy-2-(4-cluoro-2-methyl-phenylamino)-benzamide]
23 | 14 nM | Cc1cc(I)ccc1Nc1c(C(=O)NOCC2CC2)cc(Br)c(F)c1F [Example 58a, 5-Bromo-N-cyclopropylmethoxy-3,4-difluoro-2-(4-iodo-2-methyl-phenylamino)]
24 | 120 nM | CC=CCONC(=O)c1cc(Br)c(F)c(F)c1Nc1ccc(I)cc1C [Example 24a, 5-Bromo-N-(but-2-enyloxy)-3,4-difluoro-2-(4-iodo-2-methyl-phenylamino)-benzamide]
25 | ~30000 nM | Cc1cc(I)ccc1Nc1ccc(Cl)cc1C(=O)NOC1CCCCO1 (stereo not shown) [Example 6a, 5-Chloro-2-(4-iodo-2-methyl-phenylamino)-N-(terahydropyran-2-yloxy)benzamide]
26 | 30 nM | Cc1cc(I)ccc1Nc1c(C(=O)NO)cc(Br)c(F)c1F [Example 2a, 5-Bromo-3,4-difluoro-N-hydroxy-2-(4-iodo-2-methyl-phenylamino)-benzamide]
27 | 3000 nM | Cc1cc(Br)ccc1Nc1cc(F)ccc1C(=O)NO [Example 3a, 2-(4-bromo-2-methyl-phenylamino)-4-fluoro-N-hydroxy-benzamide]
28 | 730 nM | C#CCCONC(=O)c1ccc(F)c(F)c1Nc1ccc(I)cc1C [Example 29a, N-(But-3-ynyloxy)-3,4-difluoro-2-(4-iodo-2-methyl-phenylamino)-benzamide]
29 | 1000 nM | Cc1ccccc1Nc1cc(F)ccc1C(=O)NO [Example 9a, 4-Fluoro-N-hydroxy-2-(2-methylphenylamino)-benzamide]
30 | < 30000 nM | CONC(=O)c1cc(Cl)ccc1Nc1ccc(I)cc1C [Example 7a, 5-Chloro-2-(4-iodo-2-methyl-phenylamino)-N-methoxybenzamide]
31 | > 2000 nM | CONC(=O)c1ccc(F)c(F)c1Nc1ccc(I)cc1C [Example 14a, 3,4-Difluoro-2-(4-iodo-2-methyl-phenylamino)-N-N-methoxy-benzamide]
